This is an account of results in publication PMC6073568, “Efficient Lead Finding, Activity Enhancement and Preliminary Selectivity Control of Nuclear Receptor Ligands Bearing a Phenanthridinone Skeleton” (International Journal of Molecular Sciences, 2018).

pIC50: −log10 of the molar value.

The target of one test is T1, LXRα (Homo sapiens, UniProt Q13133).
T1 construct: CMX-GAL4N-hLXRα-LBD; expressed in transfected cells; host or cells: HEK293
T1 sequence (Q13133 209-447 limits assumed): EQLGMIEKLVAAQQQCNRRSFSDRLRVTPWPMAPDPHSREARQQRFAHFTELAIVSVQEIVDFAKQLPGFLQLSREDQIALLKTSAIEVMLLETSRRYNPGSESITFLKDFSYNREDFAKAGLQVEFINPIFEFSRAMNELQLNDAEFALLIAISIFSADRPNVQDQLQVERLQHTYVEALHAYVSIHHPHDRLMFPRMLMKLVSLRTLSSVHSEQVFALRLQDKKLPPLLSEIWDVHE
Briefly: LXRα reporter gene assay in HEK293. The class given is cell-based. The settings on record: read-out: LXRα antagonistic activity (IC50). For orientation: A reporter such as luciferase makes a cellular process visible.

Another test has as its target T2, RORγ (Homo sapiens, UniProt P51449).
T2 construct: expressed in transfected cells; host or cells: HEK293
T2 sequence (P51449 1-518): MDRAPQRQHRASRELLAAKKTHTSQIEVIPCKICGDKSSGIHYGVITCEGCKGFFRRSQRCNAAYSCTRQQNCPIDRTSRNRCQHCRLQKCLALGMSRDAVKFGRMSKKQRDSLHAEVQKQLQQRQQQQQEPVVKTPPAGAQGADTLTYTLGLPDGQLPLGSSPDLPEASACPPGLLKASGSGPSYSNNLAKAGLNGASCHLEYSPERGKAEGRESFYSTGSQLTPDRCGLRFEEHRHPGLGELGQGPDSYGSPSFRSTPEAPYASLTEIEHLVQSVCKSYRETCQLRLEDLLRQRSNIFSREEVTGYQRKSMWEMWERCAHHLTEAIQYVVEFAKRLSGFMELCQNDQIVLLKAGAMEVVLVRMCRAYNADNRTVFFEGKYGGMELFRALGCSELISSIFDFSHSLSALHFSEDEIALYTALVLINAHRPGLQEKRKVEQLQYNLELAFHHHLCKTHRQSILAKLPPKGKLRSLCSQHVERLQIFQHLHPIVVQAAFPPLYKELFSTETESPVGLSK
The settings on record: reporter gene assay, HEK293; read-out: RORγ inverse agonistic activity (IC50); cited from earlier work.

In the next test the target is T3, AR (Homo sapiens, UniProt P10275).
T3 sequence (P10275 1-920): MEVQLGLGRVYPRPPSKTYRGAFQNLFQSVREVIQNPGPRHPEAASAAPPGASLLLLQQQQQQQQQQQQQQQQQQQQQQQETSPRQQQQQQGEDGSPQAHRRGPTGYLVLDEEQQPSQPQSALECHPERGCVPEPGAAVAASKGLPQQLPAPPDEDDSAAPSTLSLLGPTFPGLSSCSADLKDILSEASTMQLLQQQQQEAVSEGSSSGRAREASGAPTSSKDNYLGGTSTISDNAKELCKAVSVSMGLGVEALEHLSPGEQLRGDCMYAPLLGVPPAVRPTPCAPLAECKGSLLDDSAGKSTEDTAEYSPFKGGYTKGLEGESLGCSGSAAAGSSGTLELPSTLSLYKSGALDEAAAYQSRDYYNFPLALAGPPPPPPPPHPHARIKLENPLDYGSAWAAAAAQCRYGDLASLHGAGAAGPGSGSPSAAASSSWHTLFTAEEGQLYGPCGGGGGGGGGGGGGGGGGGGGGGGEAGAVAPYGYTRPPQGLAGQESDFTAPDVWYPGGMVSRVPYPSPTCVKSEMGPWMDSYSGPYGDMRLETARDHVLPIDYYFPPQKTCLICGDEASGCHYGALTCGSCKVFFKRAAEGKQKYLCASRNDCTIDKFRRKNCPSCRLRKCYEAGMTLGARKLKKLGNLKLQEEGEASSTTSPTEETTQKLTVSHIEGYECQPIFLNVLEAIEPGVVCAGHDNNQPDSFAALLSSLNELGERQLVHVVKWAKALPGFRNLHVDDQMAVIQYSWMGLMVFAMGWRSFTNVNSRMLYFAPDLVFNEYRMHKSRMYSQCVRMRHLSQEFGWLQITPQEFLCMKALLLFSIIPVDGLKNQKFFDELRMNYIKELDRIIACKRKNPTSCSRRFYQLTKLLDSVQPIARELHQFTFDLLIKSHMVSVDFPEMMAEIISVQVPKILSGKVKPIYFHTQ
Nature of the test: AR reporter gene assay in HEK293. The class given is cell-based. The settings on record: reporter gene assay, HEK293; agonist dihydrotestosterone 0.3 nM; read-out: AR antagonistic activity (IC50), AR reporter gene.

The target in a further test is T4, RORβ (Homo sapiens, UniProt Q92753).
T4 construct: expressed in transfected cells; host or cells: HEK293
T4 sequence (Q92753 1-459 isoform Q92753-1): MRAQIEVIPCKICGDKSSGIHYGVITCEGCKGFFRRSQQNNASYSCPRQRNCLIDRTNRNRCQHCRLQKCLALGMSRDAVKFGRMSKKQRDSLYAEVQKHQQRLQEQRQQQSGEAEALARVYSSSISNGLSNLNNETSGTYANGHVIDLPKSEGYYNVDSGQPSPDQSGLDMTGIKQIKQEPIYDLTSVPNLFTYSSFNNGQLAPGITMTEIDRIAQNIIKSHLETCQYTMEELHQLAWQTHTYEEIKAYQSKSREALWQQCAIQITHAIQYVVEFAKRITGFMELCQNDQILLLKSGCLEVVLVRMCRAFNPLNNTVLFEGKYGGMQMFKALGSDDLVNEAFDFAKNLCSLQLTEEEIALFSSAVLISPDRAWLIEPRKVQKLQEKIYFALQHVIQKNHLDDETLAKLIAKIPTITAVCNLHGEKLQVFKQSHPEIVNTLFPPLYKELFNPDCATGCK
The settings on record: reporter gene assay, HEK293; read-out: RORβ inverse agonistic activity (IC50); cited from earlier work.

The next test addresses T5, RORα (Homo sapiens, UniProt P35398).
T5 construct: expressed in transfected cells; host or cells: HEK293
T5 sequence (P35398 1-523): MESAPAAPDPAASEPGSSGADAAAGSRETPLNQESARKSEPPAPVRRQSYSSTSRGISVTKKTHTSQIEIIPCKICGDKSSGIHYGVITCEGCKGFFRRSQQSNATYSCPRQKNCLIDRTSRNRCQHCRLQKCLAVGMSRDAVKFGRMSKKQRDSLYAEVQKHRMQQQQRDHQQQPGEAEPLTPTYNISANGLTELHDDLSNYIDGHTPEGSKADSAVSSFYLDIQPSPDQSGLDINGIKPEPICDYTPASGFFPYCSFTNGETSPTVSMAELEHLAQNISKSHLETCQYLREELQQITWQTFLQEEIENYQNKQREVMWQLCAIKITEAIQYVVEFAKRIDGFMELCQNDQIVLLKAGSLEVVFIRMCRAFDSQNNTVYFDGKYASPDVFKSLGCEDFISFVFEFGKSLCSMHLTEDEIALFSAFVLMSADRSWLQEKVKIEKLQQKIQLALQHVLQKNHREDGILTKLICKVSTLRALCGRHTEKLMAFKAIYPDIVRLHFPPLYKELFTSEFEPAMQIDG
The settings on record: reporter gene assay, HEK293; read-out: RORα inverse agonistic activity (IC50); cited from earlier work.

Broadly, the pIC50 is the negative decadic logarithm of the IC50, by convention in mol/L. With `CCCCn1c(=O)c2cc(OC)ccc2c2cc(C(O)(C(F)(F)F)C(F)(F)F)cc(OC)c21` [Compound 28], the pIC50 on LXRα is less than 5.00; at RORγ, 5.01; on AR it was 5.77; at RORβ, 4.96; on RORα, 4.96.

With `CCCCn1c(=O)c2c(OC)c(OC)ccc2c2cc(C(O)(C(F)(F)F)C(F)(F)F)ccc21` [Compound 29], the pIC50 was 5.49 at LXRα; 5.10 at RORγ; 5.34 on AR; 5.11 on RORβ; 5.14 at RORα.

Take `CCCCn1c(=O)c2c(OC)cc(OC)cc2c2cc(C(O)(C(F)(F)F)C(F)(F)F)ccc21` [Compound 30]: the negative-log IC50 (pIC50) at LXRα, on RORγ, on AR, on RORβ and on RORα was less than 4.70 in each case.

`CCCCn1c(=O)c2cc(OC)c(OC)cc2c2cc(C(O)(C(F)(F)F)C(F)(F)F)ccc21` [Compound 31]: the pIC50 at LXRα is 5.06; on RORγ, 4.72; at AR it was 5.80; at RORβ, 4.80; on RORα, 4.74.

Consider `O=c1[nH]c2c(F)cc(C(O)(C(F)(F)F)C(F)(F)F)cc2c2ccccc12` [Compound 32], for which the pIC50 is 5.51 on LXRα; 4.74 on RORγ; 6.41 at AR; 4.85 at RORβ; 4.82 on RORα.

For `O=c1[nH]c2ccc(C(O)(C(F)(F)F)C(F)(F)F)cc2c2cccc(F)c12` [Compound 33], the negative-log IC50 (pIC50) at LXRα is 5.51; on RORγ, 4.89; on AR, 6.34; on RORβ it was 5.01; at RORα, 5.10.

Turning to `O=c1[nH]c2ccc(C(O)(C(F)(F)F)C(F)(F)F)cc2c2ccc(F)cc12` [Compound 34], the pIC50 on LXRα is 5.10; at RORγ, less than 4.70; at AR it was 6.17; at RORβ, 4.96; on RORα, 4.77.

With `O=c1[nH]c2ccc(C(O)(C(F)(F)F)C(F)(F)F)cc2c2cc(F)ccc12` [Compound 35], the pIC50 at LXRα was 5.19; on RORγ, 5.30; on AR, 6.04; on RORβ, 5.08; on RORα, 5.01.

Turning to `COc1cc(C(O)(C(F)(F)F)C(F)(F)F)cc2c1[nH]c(=O)c1ccccc12` [Compound 39], the pIC50 was less than 4.70 on LXRα; 5.02 on RORγ; less than 4.70 at AR; less than 4.70 on RORβ; less than 4.70 at RORα.

With `CCc1cc(C(O)(C(F)(F)F)C(F)(F)F)cc2c1[nH]c(=O)c1ccccc12` [Compound 41], the pIC50 at LXRα was less than 4.70; at RORγ it was less than 4.70; at AR it was 4.85; on RORβ it was less than 4.70; at RORα it was less than 4.70.

Take `CCCc1cc(C(O)(C(F)(F)F)C(F)(F)F)cc2c1[nH]c(=O)c1ccccc12` [Compound 42]: the pIC50 is less than 4.70 at LXRα; 5.00 at RORγ; 5.27 at AR; 4.96 at RORβ; less than 4.70 at RORα.
